US20100266716A1, “Natural Photodynamic Agents and their use” (priority 2007, published 2010)

Key:
[1] = tested on: Staphylococcus aureus; experiment: MBEC device biofilm photodynamic killing (Example 1); type: cell-based; parameters: key to Killing of Staph aureus biofilm (eradication or growth): “−” = biofilm eradication at the mentioned conditions (concentration, exposure time and Light source); “+” = biofilm growth; details: 16 Hours exposure
From the text: (§1) Test microorganisms included Salmonella choleraesuis, Staphylococcus aureus, foodborne pathogens of humans. Test Compounds included Methylene blue, Hemoglobin (blood product), Hemin (blood product), Protoporphyrin (blood product), Annatto Extract (15% Norbixin), beet juice, Canthaxanthin (10%), Beta-carotene (1%), Purple carmine 50%, Carmine lake 60%, Black Carrot extract, Tomato lycopene (5%), sodium copper chlorophyllin, grape skin extract, paprika oleoresin, riboflavin, saffron, titanium dioxide, FD&C blue No1., turmeric oleoresin, FD&C blue No. 2, FD&C Green No. 3, FD&C Red No. 2 (Amaranth), FD&C Red No. 40, FD&C Yellow No. 5, and FD&C Yellow No. 6. Compounds were prepared as 1%, 0.1%, 0.01%, by weight, dissolved in water.
(§2) The light source was a full spectrum fluorescent light or LED light and the contact time was 1 and 16 hours. The study temperature was 37° C.
(§3) Approximately 10^6 organisms in 150 uL Cation Adjusted Mueller Hinton Broth (CAMHB) were placed in each of the wells of a 96 peg MBEC device. The lid of the 96 peg MBEC device was placed on the bottom plate containing organism. The device was placed on a shaker, set to 110 rpm, and incubated at 37° C. for 24 hours to produce biofilms.
(§4) The challenge plates were set up using a sterile 96-well microtitre plate using aseptic techniques in the following manner (one organism per plate, per light exposure time, per light source). Test solutions (200 uL) were placed into each well. The lid was transferred to the challenge plate and exposed to the various light sources for the prescribed exposure times (16 hours). Following the treatment, the pegs were transferred to the recovery media (“recovery plate”) then wrapped in tin foil and incubated at 37° C. for 18 to 24 hours. The recovery plate(s) was wrapped in tin foil, incubated at 37° C. for 24 hours and read visually and by a plate reader, set to an optical density measurement of 630 nm, to determine Minimum Biofilm Eradication Concentration (MBEC) by looking at growth or no growth.

[2] = tested on: Salmonella choleraesuis; experiment: as above; type: cell-based; parameters: key to Killing of Salmonella cholerasuis biofilm (eradication or growth): “−” = biofilm eradication at the mentioned conditions (concentration, exposure time and Light source); “+” = biofilm growth; details: for Killing of Salmonella cholerasuis biofilm (eradication or growth): 16 Hours exposure; for effective as photodynamic agent in killing biofilm organisms: Salmonella choleraesuis and Staphylococcus aureus biofilm, summary of Table 1
From the text: as §1, §2, §3, §4

Compound	Killing of Staph aureus biofilm (eradication or growth) ([1]; Fluorescent Light, 0.01%)	Killing of Staph aureus biofilm (eradication or growth) ([1]; Fluorescent Light, 0.1%)	Killing of Staph aureus biofilm (eradication or growth) ([1]; Fluorescent Light, 1%)	Killing of Staph aureus biofilm (eradication or growth) ([1]; LED Light, 0.01%)	Killing of Staph aureus biofilm (eradication or growth) ([1]; LED Light, 0.1%)	Killing of Staph aureus biofilm (eradication or growth) ([1]; LED Light, 1%)	Killing of Salmonella cholerasuis biofilm (eradication or growth) ([2]; Fluorescent Light, 0.01%)	Killing of Salmonella cholerasuis biofilm (eradication or growth) ([2]; Fluorescent Light, 0.1%)	Killing of Salmonella cholerasuis biofilm (eradication or growth) ([2]; Fluorescent Light, 1%)	Killing of Salmonella cholerasuis biofilm (eradication or growth) ([2]; LED Light, 0.01%)	Killing of Salmonella cholerasuis biofilm (eradication or growth) ([2]; LED Light, 0.1%)	Killing of Salmonella cholerasuis biofilm (eradication or growth) ([2]; LED Light, 1%)	effective as photodynamic agent in killing biofilm organisms [2]
CCN(Cc1cccc(S(=O)(=O)[O-])c1)c1ccc(C(=C2C=CC(=[N+](CC)Cc3cccc(S(=O)(=O)[O-])c3)C=C2)c2ccccc2S(=O)(=O)[O-])cc1.[Na+].[Na+] [Blue No. 1, FD&C blue No1.]	+	+	+	+	+	+	−	−	−	+	+	+	Effective
O=C1/C(=C2\Nc3ccc(S(=O)(=O)[O-])cc3C2=O)Nc2ccc(S(=O)(=O)[O-])cc21.[Na+].[Na+] [Blue No. 2, FD&C blue No. 2]	+	+	+	+	+	+	+	+	+	+	+	+	
CC1=C(/C=C/C(C)=C/C=C/C(C)=C/C=C/C=C(C)/C=C/C=C(C)/C=C/C2=C(C)C(=O)CCC2(C)C)C(C)(C)CCC1=O [Canthaxanthin]	+	+	+	+	+	+	+	+	+	+	+	+	
CCN(Cc1cccc(S(=O)(=O)[O-])c1)c1ccc(C(=C2C=CC(=[N+](CC)Cc3cccc(S(=O)(=O)[O-])c3)C=C2)c2ccc(O)cc2S(=O)(=O)[O-])cc1.[Na+].[Na+] [Green No. 3, FD&C Green No. 3]	+	+	+	+	+	+	+	+	+	+	+	+	
O=S(=O)([O-])c1ccc2c(N=Nc3ccc(S(=O)(=O)[O-])c4ccccc34)c(O)c(S(=O)(=O)[O-])cc2c1.[Na+].[Na+].[Na+] [Red No. 2, FD&C Red No. 2 (Amaranth)]	+	+	+	+	+	+	+	+	+	+	+	+	
COc1cc(S(=O)(=O)[O-])c(C)cc1N=Nc1c(O)ccc2cc(S(=O)(=O)[O-])ccc12.[Na+].[Na+] [Red No. 40, FD&C Red No. 40]	+	+	+	+	+	+	+	+	+	+	+	+	
Cc1cc2nc3c(=O)[nH]c(=O)nc-3n(C[C@H](O)[C@H](O)[C@H](O)CO)c2cc1C [Riboflavin, riboflavin]	+	+	+	+	+	+	+	+	+	+	+	+	
O=C([O-])C1=NN(c2ccc(S(=O)(=O)[O-])cc2)C(=O)C1N=Nc1ccc(S(=O)(=O)[O-])cc1.[Na+].[Na+].[Na+] (centres unmarked) [Yellow No. 5, FD&C Yellow No. 5]	+	+	+	+	+	+	+	+	+	+	+	+	
O=S(=O)([O-])c1ccc(N=Nc2c(O)ccc3cc(S(=O)(=O)[O-])ccc23)cc1.[Na+].[Na+] [Yellow No. 6, FD&C Yellow No. 6]	+	+	+	+	+	+	+	+	+	+	+	+	
CC1=C(/C=C/C(C)=C/C=C/C(C)=C/C=C/C=C(C)/C=C/C=C(C)/C=C/C2=C(C)CCCC2(C)C)C(C)(C)CCC1 [β-Carotene, Beta-carotene]	+	+	+	+	+	+	+	+	+	+	+	+	
Hemoglobin: Hemoglobin (blood product)	+	+	+	+	+	+	−	−	−	+	+	+	Effective
